The source of these data is patent publication US20220073557A1, “FLUORINATED BILE ACIDS” (NZP UK LIMITED, priority 2018, published 2022).

Experiment [1] deals with sporadic PD patient fibroblasts. The experiment is described as follows: Cellular ATP levels (ATPlite, normalised to CyQUANT DNA content) in sporadic PD patient fibroblasts. In kind it is cell-based. The following applies: Homo sapiens, Fibroblast, 6 sporadic PD patient fibroblasts, 24 h; for EC50: read-out: Cellular ATP levels EC50; for activity at 0.3 µM: max response with highest dose (300 nM), read-out: Cellular ATP levels Top (% of vehicle treated); for activity at 60 pM: max response with lowest dose (0.06 nM), read-out: Cellular ATP levels Bottom (% of vehicle treated). Here is the method:
(§1) Fibroblasts were cultured in DMEM (Invitrogen) and routinely subcultured every 3-5 days using trypsin to dissociate them.
The ATP protocol is generally as described in Mortiboys et al, “Mitochondrial function and morphology are impaired in parkin-mutant fibroblasts”, Ann Neurol. 2008 November; 64(5):555-65. Briefly, fibroblasts were cultured as and plated into white 384 well plates with 5000 cells per well in 50 μl of media volume. The plates are left overnight in an incubator to allow the fibroblasts to adhere to the plate surface. The following morning the Glucose based medium is replaced with 25 μl of Galactose based medium. The compounds are added to the plates using a ECHO 550 liquid handling system. The wells were dosed to provide an 8-point concentration range of 0.06 nM-300 nM of compound. After dosing the wells are topped up with a further 25 μl of Galactose based medium and then left in an incubator for 24 hours. Following this incubation the medium is removed from the plate and the wells are washed twice with sterile PBS. The wells are filled with 25 μl of Sterile PBS followed by 12.5 μl of Lysis solution from the ATPlite™ Luminescence ATP detection assay system (Perkin Elmer), including 16 cell free wells to use as blank controls. The plate is then placed on a rotary shaker for 5 mins at 700 rpm. Following the shaking 12.5 μl of ATP substrate solution (Perkin Elmer) is added to each well and a further 5 min of shaking. The plate is then placed in darkness for 10 minutes prior to reading. Using a PHERAStar® plate reader, luminescence intensity is recorded. Following the ATP assay the plates are immediately assayed for DNA content in a CyQUANT® assay.
Immediately following The ATP assay DNA content is assessed with the CyQUANT® NF Cell Proliferation Assay Kit (ThermoFisher). CyQUANT® buffer is prepared immediately before the assay and is comprised of 1 ul CyQUANT® dye per ml×1 HBSS solution. 12.5 ul of CyQUANT® buffer is added to each well. Plate left in incubator for 1 hour then read on a PHERAStar® Plate reader with excitation at 497 nm and emission at 520 nm. ATP Quantification for each well is determined using the following formula: […]
(§2) After the assays had been repeated in triplicate per line and compound the data was then inputted into Graph pad Prism 7 software suite where a dose response curve is generated using the default “[Agonist] vs response (three parameters)” equation.
(§3) From this EC50 values, lowest response and maximal response were taken and used to calculate the Geometric mean between the 5 different lines assessed.
Cellular ATP levels were measured in fibroblasts from 6 (Table 3) or 3 (Table 4) patients with sporadic Parkinson's disease when treated with Compounds of the invention or Comparator compounds. The results are shown in Tables 3 and 4, where “Bottom”=max response with lowest dose of compound (0.06 nM) and “top”=max response with highest dose of compound (300 nM).
(In general: Cellular ATP, detected with luciferase, serves as a proxy for viable cell number.)

Experiment [2] concerns sAD and familial AD (PSEN1 mutants) patient fibroblasts. The experiment is described as follows: Total cellular ATP levels in Alzheimer's disease patient fibroblasts. To be noted: 24 hour treatment at 100 nM, 21% restores to control levels. The class given is cell-based, human.
Description: Data shown in the Table 6 below is the mean increase in ATP levels after 24 hour treatment with compounds at 100 nM concentration.
Experiment [3] deals with sporadic PD patient fibroblasts. Description: Mitochondrial membrane potential (MMP, TMRM) in sporadic PD patient fibroblasts. In kind it is cell-based. To be noted: Homo sapiens, Fibroblast, 6 sporadic PD patient fibroblasts, 24 h; for EC50: read-out: MMP EC50; for activity at 0.3 µM: max response with highest dose (300 nM), read-out: MMP Top (% of vehicle treated); for activity at 60 pM: max response with lowest dose (0.06 nM), read-out: MMP Bottom (% of vehicle treated). Here is the method:
as §1
Fibroblasts were cultured and plated into a Griener black 384 pClear® plate at 10000 cells per well in 50 μl of media volume. The plates are left overnight in an incubator to allow the fibroblasts to adhere to the plate surface. The following morning the Glucose based medium is replaced with 25 μl of Galactose based media. The plates were then dosed with the compounds using an ECHO® 550 liquid handling system. The wells were dosed to provide an 8-point concentration range of 0.06 nM-300 nM of compound. After dosing the wells are topped up with a further 25 μl of Galactose based medium and then left in an incubator for 24 hours. After 24 hours, the medium is removed from the wells and replaced with 25 ul phenol free Minimal essential medium with 100 nM TMRM (Sigma) and 10 μM Hoechst Stain (Sigma). The plate is returned to the incubator for another hour after which the stain medium is removed and replaced with 25 ul Phenol free MEM. The plate is then imaged using an IN Cell high content microscope (GE Healthcare) with 10 fields of view per well in 2 channels, Cy3 excitation 542 nm, emission 604-64 nm; and the DAPI excitation 350 nm, emission 450-55 nm at 37° C. with CO2. After imaging the plate is disposed of and the images are Data mined using the INCell developer Toolkit (GE Healthcare).
as §2, §3
The mitochondrial membrane potential was measured in fibroblasts from 6 (Table 1) or 3 (Table 2) patients with sporadic Parkinson's disease when treated with Compounds of the invention or Comparator compounds. The results are shown in Tables 1 and 2, where “Bottom”=max response with lowest dose of compound (0.06 nM) and “top”=max response with highest dose of compound (300 nM).

In experiment [4] the test system is mitochondrial respiratory chain complex I. The experiment is described as follows: Complex I assay, left striatum brain homogenate of mice dosed with or without MPTP. The class given is in vivo, mouse. The following applies: left striatum mouse brain homogenate; MPTP alone; FIG. 4. The method, then:
Ex vivo mice brain was homogenated in a buffer of 250 mM sucrose, 20 mM HEPES, 3 mM EDTA, pH 7.5 at 4° C. Homogenisation was carried out using a Dounce homogenizer, for cortex samples, and by repetitive passage through a 0.5 mm syringe for isolated striatum. Samples were then incubated with 30 μl of detergent from the AbCam colorimetric Complex I assay kit on ice for 20 minutes. Samples are then centrifuged at 13,000 rpm for 30 mins. Triplicate samples per condition were blocked using the kit blocking buffer on the AbCam colorimetric Complex I assay kit plate for 3 hours. Samples are then washed using the kit wash buffer 3 times before the addition of the kit assay buffer containing NADH and colorimetric dye. The assay plate is read on a plate reader in a kinetic assay programme reading 450 nm in a 30 second interval for 50 minutes.

Regarding `C[C@H](CCC(=O)O)[C@H]1CC[C@H]2[C@@H]3[C@H](O)C[C@@H]4C[C@@H](O)[C@@H](F)C[C@]4(C)[C@H]3CC[C@]12C` [Compound 2, 2β-fluoro-3β,7α-dihydroxy-5β-cholanic acid], in experiment [1], the EC50 (as a rule, the concentration needed to bring the measured effect to its halfway point) came out at 1.08 nM; the activity at 0.3 µM worked out at 113%; the activity at 60 pM was found to be 79.9%. For the same compound, the “% increase over vehicle treated (mean increase in ATP levels)” value in experiment [2] is listed as 65%. For the same compound, in experiment [3], the EC50 is 20.8 nM, the activity at 0.3 µM worked out at 112% and the activity at 60 pM was found to be 107%.

Regarding `C[C@H](CCC(=O)O)[C@H]1CC[C@H]2[C@@H]3[C@H](O)C[C@@H]4C[C@H](O)C(F)(F)C[C@]4(C)[C@H]3CC[C@]12C` [Compound 8, 2,2-difluoro-3α,7α-dihydroxy-5β-cholanic acid], in experiment [2], the “% increase over vehicle treated (mean increase in ATP levels)” value was determined as 65%.

As for `C[C@H](CCC(=O)O)[C@H]1CC[C@H]2[C@@H]3[C@@H](O)C[C@@H]4C[C@@H](O)C(F)=C[C@]4(C)[C@H]3CC[C@]12C` [Compound F, 2-fluoro-3β,7β-dihydroxy-5β-chol-1-enic acid, reference compound], in experiment [1], the EC50 amounted to 1.91 nM, the activity at 0.3 µM stood at 112% and the activity at 60 pM was found to be 99.9%. Also, in experiment [3], the EC50 stood at 0.674 nM, the activity at 0.3 µM came to 108% and the activity at 60 pM was determined as 110%.

In the case of `C[C@H](CCC(=O)O)[C@H]1CC[C@H]2[C@@H]3C(=O)C[C@@H]4CC(=O)C(F)=C[C@]4(C)[C@H]3CC[C@]12C` [Compound G, 2-fluoro-3,7-dioxo-5β-chol-1-enic acid, reference compound], in experiment [1], the EC50 was found to be 58.4 nM, the activity at 0.3 µM came out at 92.7% and the activity at 60 pM is 83.3%. In experiment [3], the EC50 is 282 nM, the activity at 0.3 µM was 123% and the activity at 60 pM is 103%.

As to `C[C@H](CCC(=O)O)[C@H]1CC[C@H]2[C@@H]3[C@H](O)C[C@@H]4C[C@H](O)C(F)=C[C@]4(C)[C@H]3CC[C@]12C` [Compound H, 2-fluoro-3α,7α-dihydroxy-5β-chol-1-enic acid, reference compound], in experiment [1], the EC50 was 0.125 nM, the activity at 0.3 µM was 121% and the activity at 60 pM stood at 87.6%. For the same compound, in experiment [3], the EC50 is 4.58 nM, the activity at 0.3 µM was determined as 109% and the activity at 60 pM was found to be 99.8%.

For `CN1CC=C(c2ccccc2)CC1` [MPTP, 1-methyl-4-phenyl-1,2,3,6-tetrahydropyridine, reference compound], the “Reduction in complex I activity compared with untreated controls” value in experiment [4] was found to be 50%.
